# Measured values reported in patent US7560468B2, “Substituted 1,4,8-triazaspiro[4,5]decan-2-one compounds” (Gruenenthal GmbH, priority 2004, dated 2009).
# Tests used:
# [1] = tested on: batrachotoxin (BTX) binding site of the sodium channel; experiment: Affinity to the batrachotoxin (BTX) binding site of the sodium channel; conditions: rat cerebrocortex synaptosomes, [3H]-batrachotoxinin A20 α-benzoate 10 nM; test concentration not given
# 5-HT transporter = target: T1, 5-HT transporter (Rattus norvegicus, UniProt P31652); experiment: Inhibition of 5-HT uptake in synaptosomes; format: biochemical; conditions: for inhibition at 1 µM: read-out: Uptake_5-HT, rat, 1 μM, % inhibition
# T1 construct: from tissue; host or cells: rat brain synaptosomes (marrow/medulla and pons), P2 fraction
# T1 sequence (P31652 whole entry): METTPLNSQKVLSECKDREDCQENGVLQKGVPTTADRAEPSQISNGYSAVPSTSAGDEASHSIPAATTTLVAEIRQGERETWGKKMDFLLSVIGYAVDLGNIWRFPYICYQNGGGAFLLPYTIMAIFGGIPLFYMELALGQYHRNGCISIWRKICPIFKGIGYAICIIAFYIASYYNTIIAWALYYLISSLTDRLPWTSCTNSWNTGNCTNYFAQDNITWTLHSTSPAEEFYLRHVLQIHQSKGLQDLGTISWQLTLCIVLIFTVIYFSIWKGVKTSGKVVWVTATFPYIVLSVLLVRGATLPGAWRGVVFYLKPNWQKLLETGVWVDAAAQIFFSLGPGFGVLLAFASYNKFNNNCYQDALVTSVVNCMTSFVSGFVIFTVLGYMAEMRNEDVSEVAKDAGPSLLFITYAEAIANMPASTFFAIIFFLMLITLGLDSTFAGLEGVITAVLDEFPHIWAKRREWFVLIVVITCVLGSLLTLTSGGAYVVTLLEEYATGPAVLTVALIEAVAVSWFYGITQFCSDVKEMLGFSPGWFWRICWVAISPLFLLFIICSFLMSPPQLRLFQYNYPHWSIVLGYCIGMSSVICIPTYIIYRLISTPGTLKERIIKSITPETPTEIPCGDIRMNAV
structure (smiles),measurement,setting,value
"CCOC(=O)CN1C(=O)C(Cc2ccccc2)NC12CCN(S(=O)(=O)c1cccc(C)c1)CC2 (stereo not drawn) [Example 63, Ethyl[3-benzyl-2-oxo-8-(toluol-3-sulfonyl)-1,4,8-triazaspiro[4,5]dec-1-yl]-acetate]",BTX Inhibition,[1],36
same,"Uptake_5-HT, rat, 1 μM, % inhibition",5-HT transporter,59%
"CCOC(=O)CN1C(=O)C(Cc2ccccc2)NC12CCN(S(=O)(=O)c1ccccc1)CC2 (stereo not drawn) [Example 66, Ethyl(8-benzolsulfonyl-3-benzyl-2-oxo-1,4,8-triazaspiro[4,5]dec-1-yl)acetate]",BTX Inhibition,[1],39
same,"Uptake_5-HT, rat, 1 μM, % inhibition",5-HT transporter,64%
"CCCc1ccc(S(=O)(=O)N2CCC3(CC2)NC(Cc2ccccc2)C(=O)N3CC(=O)OCC)cc1 (stereo not drawn) [Example 67, Ethyl[3-benzyl-2-oxo-8-(4-propylbenzolsulfonyl)-1,4,8-triazaspiro[4,5]dec-1-yl]-acetate]",BTX Inhibition,[1],40
same,"Uptake_5-HT, rat, 1 μM, % inhibition",5-HT transporter,64%
"CCOC(=O)CN1C(=O)C(Cc2ccccc2)NC12CCN(S(=O)(=O)c1ccc(F)c(Cl)c1)CC2 (stereo not drawn) [Example 69, Ethyl[3-benzyl-8-(3-chloro-4-fluorobenzolsulfonyl)-2-oxo-1,4,8-triazaspiro[4,5]dec-1-yl]-acetate]",BTX Inhibition,[1],73
same,"Uptake_5-HT, rat, 1 μM, % inhibition",5-HT transporter,62%
"O=C1C(Cc2ccccc2)NC2(CCN(S(=O)(=O)c3ccccc3)CC2)N1Cc1ccccc1F (stereo not drawn) [Example 71, 8-Benzolsulfonyl-3-benzyl-1-(2-fluorobenzyl)-1,4,8-triazaspiro[4,5]decan-2-one]",BTX Inhibition,[1],85
same,"Uptake_5-HT, rat, 1 μM, % inhibition",5-HT transporter,76%
"CCOC(=O)CN1C(=O)C(Cc2ccccc2)NC12CCN(S(=O)(=O)c1c(C)cc(C)cc1C)CC2 (stereo not drawn) [Example 72, Ethyl[3-benzyl-2-oxo-8-(2,4,6-trimethylbenzolsulfonyl)-1,4,8-triazaspiro[4,5]dec-1-yl]-acetate]",BTX Inhibition,[1],75
same,"Uptake_5-HT, rat, 1 μM, % inhibition",5-HT transporter,75%
"CCOC(=O)CN1C(=O)C(Cc2ccccc2)NC12CCN(S(=O)(=O)c1cc(OC)ccc1OC)CC2 (stereo not drawn) [Example 74, Ethyl[3-benzyl-8-(2,5-dimethoxy-benzolsulfonyl)-2-oxo-1,4,8-triazaspiro[4,5]dec-1-yl]-acetate]",BTX Inhibition,[1],30
same,"Uptake_5-HT, rat, 1 μM, % inhibition",5-HT transporter,74%
"CSCCC1NC2(CCN(S(=O)(=O)N(C)C)CC2)N(Cc2ccc3ccccc3c2)C1=O (stereo not drawn) [Example 75, 3-(2-Methylsulfanylethyl)-1-naphthalin-2-ylmethyl-2-oxo-1,4,8-triazaspiro[4,5]decan-8-sulfonic acid dimethylamide]",BTX Inhibition,[1],62
same,inhibition at 1 µM,5-HT transporter,74%
"CC(C)C1NC2(CCN(S(=O)(=O)c3ccc4c(c3)CN(C(=O)C(F)(F)F)CC4)CC2)N(Cc2cccc(C#N)c2)C1=O (stereo not drawn) [Example 77, 3-{3-Isopropyl-2-oxo-8-[2-(2,2,2-trifluoroacetyl)-1,2,3,4-tetrahydroisoquinolin-7-sulfonyl]-1,4,8-triazaspiro[4,5]dec-1-ylmethyl}-benzonitrile]",BTX Inhibition,[1],36
same,inhibition at 1 µM,5-HT transporter,32%
"C=CCN1C(=O)C(CCSC)NC12CCN(S(=O)(=O)c1c(C)cc(OC)c(C)c1C)CC2 (stereo not drawn) [Example 79, 1-Allyl-8-(4-methoxy-2,3,6-trimethylbenzolsulfonyl)-3-(2-methylsulfanylethyl)-1,4,8-triazaspiro[4,5]decan-2-one]",BTX Inhibition,[1],67
same,"Uptake_5-HT, rat, 1 μM, % inhibition",5-HT transporter,37%
"CCOC(=O)CN1C(=O)C(Cc2ccccc2)NC12CCN(S(=O)(=O)c1ccccc1C(=O)OC)CC2 (stereo not drawn) [Example 80, Methyl 2-(3-benzyl-1-ethoxycarbonylmethyl-2-oxo-1,4,8-triazaspiro[4,5]decan-8-sulfonyl)benzoate]",BTX Inhibition,[1],33
same,inhibition at 1 µM,5-HT transporter,84%
"O=C1C(Cc2ccccc2)NC2(CCN(S(=O)(=O)c3ccccc3C(F)(F)F)CC2)N1Cc1ccccc1F (stereo not drawn) [Example 81, 3-Benzyl-1-(2-fluorobenzyl)-8-(2-trifluoromethylbenzolsulfonyl)-1,4,8-triazaspiro[4,5]decan-2-one]",BTX Inhibition,[1],87
same,"Uptake_5-HT, rat, 1 μM, % inhibition",5-HT transporter,81%
"CC(C)CC1NC2(CCN(C(=S)Nc3ccc(F)cc3)CC2)NC1=O (stereo not drawn) [Example 112, 2-Isobutyl-3-oxo-1,4,8-triazaspiro[4,5]decan-8-thiocarboxylic acid (4-fluorobenzol)amide]",BTX Inhibition,[1],30
same,"Uptake_5-HT, rat, 1 μM, % inhibition",5-HT transporter,31%
"CCCCN1C(=O)C(C(C)C)NC12CCN(C(=S)Nc1ccccc1)CC2 (stereo not drawn) [Example 116, 1-Butyl-3-isopropyl-2-oxo-1,4,8-triazaspiro[4,5]decan-8-thiocarboxylic acid benzolamide]",BTX Inhibition,[1],30
same,"Uptake_5-HT, rat, 1 μM, % inhibition",5-HT transporter,40%
"CCCCN1C(=O)C(C(C)C)NC12CCN(C(=S)Nc1cc(Cl)ccc1Cl)CC2 (stereo not drawn) [Example 117, 1-Butyl-3-isopropyl-2-oxo-1,4,8-triazaspiro[4,5]decan-8-thiocarboxylic acid (2,5-dichlorobenzol)amide]",BTX Inhibition,[1],44
same,"Uptake_5-HT, rat, 1 μM, % inhibition",5-HT transporter,33%
"CCCCN1C(=O)C(CCSC)NC12CCN(C(=S)Nc1cc(Cl)ccc1Cl)CC2 (stereo not drawn) [Example 120, 1-Butyl-3-(2-methylsulfanylethyl)-2-oxo-1,4,8-triazaspiro[4,5]decan-8-thiocarboxylic acid (2,5-dichlorobenzol)amide]",BTX Inhibition,[1],49
same,"Uptake_5-HT, rat, 1 μM, % inhibition",5-HT transporter,58%
"COCCNC(=S)N1CCC2(CC1)NC(CCSC)C(=O)N2Cc1ccc2ccccc2c1 (stereo not drawn) [Example 121, 3-(2-Methylsulfanylethyl)-1-naphthalin-2-ylmethyl-2-oxo-1,4,8-triazaspiro[4,5]decan-8-thiocarboxylic acid (2-methoxy-ethyl)amide]",BTX Inhibition,[1],47
same,inhibition at 1 µM,5-HT transporter,39%
"CCCCN1C(=O)C(C(C)C)NC12CCN(C(=S)Nc1ccccc1F)CC2 (stereo not drawn) [Example 122, 1-Butyl-3-isopropyl-2-oxo-1,4,8-triazaspiro[4,5]decan-8-thiocarboxylic acid (2-fluorobenzol)amide]",BTX Inhibition,[1],35
same,"Uptake_5-HT, rat, 1 μM, % inhibition",5-HT transporter,32%
"CCCCN1C(=O)C(C(C)C)NC12CCN(C(=S)Nc1cccc(C)c1)CC2 (stereo not drawn) [Example 124, 1-Butyl-3-isopropyl-2-oxo-1,4,8-triazaspiro[4,5]decan-8-thiocarboxylic acid m-tolylamide]",BTX Inhibition,[1],41
same,inhibition at 1 µM,5-HT transporter,47%
"C=CCN1C(=O)C(C(C)C)NC12CCN(C(=S)Nc1cc(F)ccc1F)CC2 (stereo not drawn) [Example 128, 1-Allyl-3-isopropyl-2-oxo-1,4,8-triazaspiro[4,5]decan-8-thiocarboxylic acid (2,5-difluorobenzol)amide]",BTX Inhibition,[1],33
same,"Uptake_5-HT, rat, 1 μM, % inhibition",5-HT transporter,57%
"C=CCNC(=S)N1CCC2(CC1)NC(CCSC)C(=O)N2Cc1ccccc1C#N (stereo not drawn) [Example 129, 1-(2-Cyanobenzyl)-3-(2-methylsulfanylethyl)-2-oxo-1,4,8-triazaspiro[4,5]decan-8-thiocarboxylic acid allylamide]",BTX Inhibition,[1],36
same,inhibition at 1 µM,5-HT transporter,41%
"CCCCN1C(=O)C(CCSC)NC12CCN(C(=S)NCC1CCCCC1)CC2 (stereo not drawn) [Example 132, 1-Butyl-3-(2-methylsulfanylethyl)-2-oxo-1,4,8-triazaspiro[4,5]decan-8-thiocarboxylic acid cyclohexylmethylamide]",BTX Inhibition,[1],71
same,inhibition at 1 µM,5-HT transporter,30%
"CC(C)C1NC2(CCN(C(=S)Nc3cc(Cl)ccc3Cl)CC2)N(Cc2ccccc2)C1=O (stereo not drawn) [Example 136, 1-Benzyl-3-isopropyl-2-oxo-1,4,8-triazaspiro[4,5]decan-8-thiocarboxylic acid (2,5-dichlorobenzol)amide]",BTX Inhibition,[1],66
same,"Uptake_5-HT, rat, 1 μM, % inhibition",5-HT transporter,44%
"CSCCC1NC2(CCN(C(=S)Nc3ccc(C(C)C)cc3)CC2)N(Cc2ccccc2)C1=O (stereo not drawn) [Example 139, 1-Benzyl-3-(2-methylsulfanylethyl)-2-oxo-1,4,8-triazaspiro[4,5]decan-8-thiocarboxylic acid (4-isopropylbenzol)amide]",BTX Inhibition,[1],97
same,"Uptake_5-HT, rat, 1 μM, % inhibition",5-HT transporter,63%
"CSCCC1NC2(CCN(C(=S)Nc3cc(F)ccc3F)CC2)N(Cc2ccccc2)C1=O (stereo not drawn) [Example 140, 1-Benzyl-3-(2-methylsulfanylethyl)-2-oxo-1,4,8-triazaspiro[4,5]decan-8-thiocarboxylic acid (2,5-difluorobenzol)amide]",BTX Inhibition,[1],53
same,"Uptake_5-HT, rat, 1 μM, % inhibition",5-HT transporter,59%
"CCCCN1C(=O)C(C(C)C)NC12CCN(C(=S)Nc1ccccc1C(=O)OC)CC2 (stereo not drawn) [Example 143, Methyl 2-[(1-butyl-3-isopropyl-2-oxo-1,4,8-triazaspiro[4,5]decan-8-carbothioyl)amino]-benzoate]",BTX Inhibition,[1],51
same,inhibition at 1 µM,5-HT transporter,32%
"CCOC(=O)CN1C(=O)C(Cc2ccccc2)NC12CCN(C(=S)Nc1ccccc1C(=O)OC)CC2 (stereo not drawn) [Example 145, Methyl 2-[(3-benzyl-1-ethoxycarbonylmethyl-2-oxo-1,4,8-triazaspiro[4,5]decan-8-carbothioyl)amino]-benzoate]",BTX Inhibition,[1],69
same,inhibition at 1 µM,5-HT transporter,67%
"CCOC(=O)NC(=S)N1CCC2(CC1)NC(CCSC)C(=O)N2Cc1ccccc1C#N (stereo not drawn) [Example 146, Ethyl[1-(2-cyanobenzyl)-3-(2-methylsulfanylethyl)-2-oxo-1,4,8-triazaspiro[4,5]decan-8-carbothioyl]-carbamate]",BTX Inhibition,[1],30
same,inhibition at 1 µM,5-HT transporter,30%
"CSCCC1NC2(CCN(C(=S)NC(C)c3ccccc3)CC2)N(Cc2ccc3ccccc3c2)C1=O (stereo not drawn) [Example 148, 3-(2-Methylsulfanylethyl)-1-naphthalin-2-ylmethyl-2-oxo-1,4,8-triazaspiro[4,5]decan-8-thiocarboxylic acid (1-benzol-ethyl)amide]",BTX Inhibition,[1],88
same,"Uptake_5-HT, rat, 1 μM, % inhibition",5-HT transporter,49%
"CC(C)C1NC2(CCN(C(=S)Nc3cc(Cl)cc(Cl)c3)CC2)N(Cc2ccccc2)C1=O (stereo not drawn) [Example 177, 1-Benzyl-3-isopropyl-2-oxo-1,4,8-triazaspiro[4,5]decan-8-thiocarboxylic acid (3,5-dichlorobenzol)amide]",BTX Inhibition,[1],46
same,"Uptake_5-HT, rat, 1 μM, % inhibition",5-HT transporter,36%
